Among the test systems are NCI-H23 lung; KM12 colon; SF-295 CNS; HOP-92 NSCLC; OVCAR-3 ovarian; LOX IMVI melanoma; SW-620 colon; OVCAR-8 ovarian; DU-145 prostate; HT29 colon.
Experiment in all cases: DTP human tumour cell line panel, 48 h

The structures appear in SMILES notation.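 Step 1: Grow cells in 96-well plates. Step 2: Expose to compound for 48 hours at 5 concentrations. Step 3: Interpolate endpoints linearly; if unreached, use highest concentration. The concentration for 50% growth inhibition is given as GI50. TGI: concentration producing complete growth inhibition.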 Bounds are passed on as bounds.

Consider ten compounds from PubChem BioAssay (NCI).

The TGI is the concentration giving total growth inhibition. Low values mean more potent growth arrest, high ones less potent growth arrest. In the case of `CS(=O)(=O)Nc1ccc(Nc2c3ccccc3nc3ccccc23)cc1`, the total growth inhibition concentration (TGI) with NCI-H23 lung came to 25.8 µM; in the experiment on KM12 colon it was 24.7 µM; in the experiment on SF-295 CNS, 14.6 µM; in the experiment with HOP-92 NSCLC, 24.2 µM; with OVCAR-3 ovarian, 18.7 µM; with LOX IMVI melanoma, 13.9 µM. In addition, the TGI in the experiment with SW-620 colon is 19.9 µM; with OVCAR-8 ovarian, 32.6 µM; with DU-145 prostate it was > 23.1 µM; in the experiment on HT29 colon, 20.5 µM.

What is called GI50 is the concentration at which growth is held to half of that of the control. `Nc1ccc(/C=N/Nc2ccnc3c(N)cccc23)c2cccnc12`: the GI50 in the experiment on KM12 colon is 1700 nM; in the experiment with SF-295 CNS it was 1570 nM; with HOP-92 NSCLC it was 1580 nM; in the experiment with OVCAR-3 ovarian it was 1630 nM; in the experiment on DU-145 prostate, 1680 nM; with HT29 colon, 1920 nM. Also, the TGI with KM12 colon turned out to be 3.49 µM; with SF-295 CNS, 3 µM; in the experiment with HOP-92 NSCLC, 3.14 µM; with OVCAR-3 ovarian, 3.16 µM; in the experiment with DU-145 prostate, 3.13 µM; in the experiment with HT29 colon, 3.47 µM.

Take `NCCC(O)(P(=O)(O)O)P(=O)(O)O`: the GI50 in the experiment with NCI-H23 lung, with KM12 colon, in the experiment on HOP-92 NSCLC, in the experiment on OVCAR-3 ovarian, in the experiment on LOX IMVI melanoma and in the experiment with SW-620 colon was > 100000 nM each time. The figures for the GI50 in the experiment on OVCAR-8 ovarian, in the experiment with DU-145 prostate and with HT29 colon were 3.47 µM, > 100000 nM and > 100000 nM, respectively. Moreover, the TGI with NCI-H23 lung, with KM12 colon, in the experiment with HOP-92 NSCLC, with OVCAR-3 ovarian, in the experiment on LOX IMVI melanoma and in the experiment on SW-620 colon was > 100 µM throughout. Besides, the results for the TGI in the experiment with OVCAR-8 ovarian, in the experiment on DU-145 prostate and in the experiment with HT29 colon were 35.6 µM, > 100 µM and > 100 µM, respectively.

For the compound `COC1=CC(c2ccc[nH]2)=N/C1=C\c1ccc[nH]1`, the GI50 in the experiment with NCI-H23 lung is 2100 nM; in the experiment on KM12 colon, 69.8 nM; in the experiment on SF-295 CNS, 580 nM; in the experiment with HOP-92 NSCLC, 199 nM; with OVCAR-3 ovarian, 96.4 nM; in the experiment with SW-620 colon, 39.3 nM. The 50% growth inhibitory concentration (GI50) is 0.232 µM in the experiment on OVCAR-8 ovarian, 163 nM with DU-145 prostate and < 13 nM with HT29 colon. The TGI in the experiment with NCI-H23 lung turned out to be 19.1 µM; in the experiment on KM12 colon, 12.8 µM; in the experiment with SF-295 CNS, 3.17 µM; in the experiment with HOP-92 NSCLC, 1.26 µM; in the experiment with OVCAR-3 ovarian, 3.8 µM; in the experiment on SW-620 colon, 13.8 µM. The TGI was 20.5 µM with OVCAR-8 ovarian, 13.3 µM in the experiment on DU-145 prostate and 3.93 µM with HT29 colon.

`C=C(C)[C@@H]1CC[C@]2(C)[C@H](CC[C@@H]3[C@H]4[C@H]5OC[C@@]4(CCC5(C)C)CC[C@]32C)[C@@]1(C)CCCN`: the GI50 in the experiment with NCI-H23 lung is 1770 nM; in the experiment with KM12 colon, 1780 nM; with SF-295 CNS, 1780 nM; in the experiment with HOP-92 NSCLC, 1370 nM; in the experiment on OVCAR-3 ovarian it was 1680 nM; in the experiment on LOX IMVI melanoma it was 27.5 nM. The GI50 in the experiment on SW-620 colon was 1770 nM; in the experiment with DU-145 prostate it was 1860 nM. The TGI in the experiment with NCI-H23 lung is 3.53 µM; in the experiment with KM12 colon it was 3.33 µM; with SF-295 CNS, 3.22 µM; in the experiment on HOP-92 NSCLC, 2.79 µM; in the experiment with OVCAR-3 ovarian, 3.07 µM; in the experiment on LOX IMVI melanoma, 0.489 µM. Also, the TGI in the experiment on SW-620 colon turned out to be 3.48 µM; in the experiment with DU-145 prostate it was 3.36 µM.

Consider `O=C(/C=C\c1ccc(Cl)cc1Cl)c1cccs1`, for which the TGI worked out at 44 µM with NCI-H23 lung; 38.8 µM with KM12 colon; 37.9 µM in the experiment with SF-295 CNS; 69.1 µM in the experiment with HOP-92 NSCLC; 89.7 µM in the experiment with OVCAR-3 ovarian; 28.8 µM with SW-620 colon. The TGI with OVCAR-8 ovarian was found to be 24.8 µM; in the experiment with DU-145 prostate, 44.9 µM; in the experiment on HT29 colon it was 64.5 µM.

With `CCCc1nc2c(C)cc(-c3nc4ccccc4n3C)cc2n1Cc1ccc(-c2ccccc2C(=O)O)cc1`, the GI50 was 51500 nM in the experiment with NCI-H23 lung; 34400 nM with SF-295 CNS; 25700 nM with HOP-92 NSCLC; 14700 nM in the experiment on OVCAR-3 ovarian; 23200 nM in the experiment with LOX IMVI melanoma; 49300 nM in the experiment with SW-620 colon. The GI50 was 35.4 µM in the experiment on OVCAR-8 ovarian, 44000 nM in the experiment with DU-145 prostate and 35800 nM in the experiment with HT29 colon. Also, the TGI with NCI-H23 lung was > 100 µM; with SF-295 CNS, > 100 µM; with HOP-92 NSCLC, > 100 µM; in the experiment on OVCAR-3 ovarian it was 37.3 µM; with LOX IMVI melanoma, > 100 µM; in the experiment on SW-620 colon, > 100 µM. For the same compound, the TGI in the experiment with OVCAR-8 ovarian, in the experiment on DU-145 prostate and with HT29 colon was > 100 µM in each case.

For `CCOC(=O)c1sc(Nc2ccc(Cl)cc2)nc1C`, the GI50 is 1500 nM in the experiment on NCI-H23 lung; 1690 nM in the experiment with SF-295 CNS; 346 nM with HOP-92 NSCLC; 1690 nM in the experiment on OVCAR-3 ovarian; 1490 nM in the experiment with LOX IMVI melanoma; 2600 nM in the experiment on SW-620 colon. Further, the GI50 was 2.89 µM with OVCAR-8 ovarian, 2470 nM in the experiment on DU-145 prostate and 2050 nM in the experiment with HT29 colon. For the same compound, the TGI with NCI-H23 lung amounted to 3.56 µM; in the experiment on SF-295 CNS, 3.57 µM; in the experiment on HOP-92 NSCLC it was 1.81 µM; in the experiment with OVCAR-3 ovarian, 3.92 µM; in the experiment on LOX IMVI melanoma, 2.86 µM; with SW-620 colon, 7.54 µM. Further, the values for the TGI in the experiment with OVCAR-8 ovarian, in the experiment on DU-145 prostate and with HT29 colon were 7.73 µM, 9.04 µM and 4.09 µM, respectively.

Take `Cc1cc(Cl)cc2c1NC(=O)C2(O)C(C)C(=O)c1ccc(Cl)cc1` (configuration not stated): the TGI in the experiment with NCI-H23 lung, in the experiment on KM12 colon, in the experiment with SF-295 CNS, in the experiment on HOP-92 NSCLC, with OVCAR-3 ovarian and in the experiment with LOX IMVI melanoma was > 100 µM throughout. The TGI with SW-620 colon, in the experiment on OVCAR-8 ovarian and in the experiment on HT29 colon was > 100 µM throughout.

For `Cc1ccc(C)c(NC(=O)CC/C(=N\NC(=O)C(N)=O)C(C)C(=O)c2ccc(O)cc2)c1` (configuration not stated), the TGI in the experiment with NCI-H23 lung, in the experiment with KM12 colon, with SF-295 CNS, in the experiment with HOP-92 NSCLC, with OVCAR-3 ovarian and in the experiment with LOX IMVI melanoma was > 100 µM in each case. The TGI with SW-620 colon, with OVCAR-8 ovarian and in the experiment on HT29 colon was > 100 µM in each case.
